According to patent US4820717A, “Antimicrobial aromatic derivatives substituted by an (omega amino) alkanol group and compositions containing them” (priority 1985, dated 1989):
In brackets after ≈: the same amount, converted by molar mass.

Key:
lymphoma cells of mice = conditions: cited from earlier work
[1] = tested on: Pseudomonas aeruginosa CNCM A22; test: Bactericidal activity (MBC), strain 3; assay type: cell-based; conditions: CNCMA22, 20 min, strain 3, 20 minutes of contact, read-out: Minimum bactericidal concentration (MBC)
Text: (§1) The bactericidal activity of the products according to the invention has been analyzed on various strains by the method described hereafter:
(§2) A bacterial inoculum is placed in contact with different dilutions of the product to be tested, and this for a limited period of time. At the end of contact, an aliquot part of the mixture bacterial suspension/product is deposited on the surface of an agar culture medium containing an agent neutralizing the antibacterial activity of the product. The bactericidal concentration retained is the smallest concentration of the product from which bacteria stop growing. Said concentration is expressed in μg/ml.
(§3) The bacterial strains selected for the analysis are:
3--Pseudomonas aeruginosa CNCM A22;
(§4) The second strain is supported on a Worgel Fergusson medium, the other strains being supported on Tryptic Soy Agar-Difco (TSA) commercialized by Difco.
(§5) After a 24-hour culture period at 37° C., the microbial growth is collected by means of glass beads and of 10 ml of diluent containing 1 g of tryptone and 8.5 g of sodium chloride in 1000 ml of distilled water. The formed suspension is stirred and the percentage of light transmission at 620 nm is measured with a spectrophotometer:
(§6) The bacterial inoculum corresponds to a 1/20th dilution of this bacterial suspension.
(§7) Plates equipped with cupules receive different dilutions of the product to be analyzed. These dilutions are placed in contact with the different bacterial suspensions by means of a multiple-center inoculator. After 20 minutes of contact, aliquot parts are transferred by means of said inoculator on the surface of an agar medium (TSA) in Petri dishes, containing an activity-neutralizing agent, namely 20 g of lubrol W, 25 g of Tween 80 and 2.5 g of sodium thiosulfate in 1000 ml of TSA (Difco). The efficiency of the neutralizing agent is controlled for each product to be analyzed by depositing on the surface of the culture medium an aliquot part of the dilution of the product to be analyzed. After drying, the corresponding inoculum is deposited in the same place. An inoculum control is performed on an agar medium with or without neutralizing agent. Readings are taken after 48 hours of incubation at 37° C.

guinea-pig skin [2] = test: Skin sensitization test in the guinea-pig; assay type: in vivo; conditions: one week treatment after two weeks' rest
Description: The tolerance of the products according to the invention was tested in the guinea-pig. The animals are shorn on both sides of the middle line of the back, the shearing being kept up every other day. Batches of 6 animals receive, on the shorn part, 0.2 ml of an aqueous or alcoholic solution of the product according to the invention. When these products are in alcoholic solution, one control batch of animals receives the alcohol on one side. The skin sensitization test is performed on the same animals after two weeks' rest. The treatment lasts one week, it is identical to the preceding one. The evaluation is based on the same criteria and on the same scale as used to determine the local tolerance.

[3] = Acute toxicity by oral route in mice; conditions: mouse, in vivo, per os, male CD1 mice, 14 days observation
Description: Acute toxicity was tested by oral route in mice. This test was carried out with male mice of CD1 strain, obtained from the Charles Reever breeding farm. Each batch was composed of 5 animals of body weight varying between 24 and 30 g kept in the same cage. The animals were kept fasting for 6 hours before the treatment. For every test, the product, placed in suspension in a 10% solution of gum arabic, was administered by forcible feeding with an oesophageal probe. Food was then served to the animals 4 hours after the forcible feeding and the animals were kept under observation for a period of 14 days after the administration. During that period, the death rate is recorded for each batch of animals used in the experiment and, wherever possible, the LD50 is determined by the method of J. T. Litchfield and F. Wilcoxon, J. Pharmacol. 1949, 95, 99-113.
The results are given in mg of substance tested per kg of body weight. They are compiled in Table III below.

[4] = tested on: Staphylococcus aureus CNCM 53154; test: Bactericidal activity (MBC), strain 5; assay type: cell-based; conditions: CNCM53154, 20 min, strain 5, 20 minutes of contact, read-out: Minimum bactericidal concentration (MBC)
Text: as §1, §2, §3
5--Staphylococcus aureus CNCM 53154.
as §4, §5, §6, §7

[5] = tested on: Streptococcus faecalis CNCM 5855; test: Bactericidal activity (MBC), strain 4; assay type: cell-based; conditions: Enterococcus faecalis, CNCM5855, 20 min; strain 4, 20 minutes of contact; read-out: Minimum bactericidal concentration (MBC)
Text: as §1, §2, §3
4--Streptococcus faecalis CNCM 5855;
as §4, §5, §6, §7

[6] = tested on: Escherichia Coli CNCM 54125; test: Bactericidal activity (MBC), strain 1; assay type: cell-based; conditions: 20 min, strain 1, 20 minutes of contact, read-out: Minimum bactericidal concentration (MBC)
Text: as §1, §2, §3
1--Escherichia Coli CNCM 54125;
as §4, §5, §6, §7

[7] = tested on: Encapsulated klebsiella pneumoniae R030; test: Bactericidal activity (MBC), strain 2; assay type: cell-based; conditions: 20 min, strain 2, 20 minutes of contact, read-out: Minimum bactericidal concentration (MBC)
Text: as §1, §2, §3
2--Encapsulated klebsiella pneumoniae R030;
as §4, §5, §6, §7

guinea-pig skin [8] = test: Preliminary skin tolerance in the guinea-pig; assay type: in vivo; conditions: 0.2 ml on shorn skin once a day, six days out of seven, three weeks
Description: The tolerance of the products according to the invention was tested in the guinea-pig. The animals are shorn on both sides of the middle line of the back, the shearing being kept up every other day. Batches of 6 animals receive, on the shorn part, 0.2 ml of an aqueous or alcoholic solution of the product according to the invention. When these products are in alcoholic solution, one control batch of animals receives the alcohol on one side.
To study the preliminary skin tolerance, the treatment is applied once a day, six days out of seven, for three weeks. The observations made of the skin are concerned with the presence of erythema, skin eruptions or hyperkeratosis, the intensity of which is graduated according to a preset scale.

guinea-pig = test: Phototoxic or photoallergic effect on the guinea-pig; assay type: in vivo
Text: The products according to the invention have also been tested for a phototoxic or photoallergic effect on the guina-pig. The technique used is that of J. Unkovic, G. Mazue and J. Girard, in "Sciences et Techniques de l'Animal de Laboratoire", 1983, 8 (3), 149-160. This is an adaptation of the techniques described by L. C. Harber et al., Arch. Dermatol., 1967, 96, 646-656 and L. J. Vinson et al., Arch. Dermatol., 1966, 17, 123-130.

Candida parakruzei 3918 = test: Antifungal activity (MFC), strain 3; assay type: cell-based; conditions: 20 min; yeast strain 3; read-out: Minimum fongicidal concentration (MFC)
Text: as §2, §7
(§8) The antifungal activity of the products according to the invention was also determined with the aforedescribed method.
(§9) The fungal strains selected for the analysis are:
3--Candida parakruzei 3918;
(§10) These strains are supported on a Sabouraud Dextrose agar medium commercialized by Difco; the technique used is the same as that used in the analysis of the antibacterial activity. After 48 hours of culture at 37° C., the microbial growth is collected with glass beads and 5 ml of diluent containing 1 g of tryptone and 8.5 g of sodium chloride in 1000 ml of distilled water; 5 ml of the diluent are then added. […] A 1/100th dilution of this suspension, observed between slides under a microscope 40-lens, should show 10 cells per frame, this corresponding to 1,000,000 yeasts per ml.

[9] = tested on: Torulopsis glabrata 072023; test: Antifungal activity (MFC), strain 4; assay type: cell-based; conditions: 20 min; yeast strain 4; read-out: Minimum fongicidal concentration (MFC)
Text: as §2, §7, §8, §9, §10

Candida tropicalis 3834 = test: Antifungal activity (MFC), strain 2; assay type: cell-based; conditions: 20 min; yeast strain 2; read-out: Minimum fongicidal concentration (MFC)
Text: as §2, §7, §8, §9
2--Candida tropicalis 3834;
as §10

[10] = tested on: Candida albicans CNCM 1180; test: Antifungal activity (MFC), strain 1; assay type: cell-based; conditions: 20 min; yeast strain 1; read-out: Minimum fongicidal concentration (MFC)
Text: as §2, §7, §8, §9
1--Candida albicans CNCM 1180;
as §10

SMILES	effect on the cellular division of the lymphoma cells (lymphoma cells of mice)	MBC [1]	products found to have a sensibilizing effect (guinea-pig skin [2])	LD50 at 336 h [3]	MBC [4]	MBC [5]	MBC [6]	MBC [7]	products found to have a bad tolerance (guinea-pig skin [8])	products found to have a phototoxic or photoallergic effect (guinea-pig)	MFC (Candida parakruzei 3918)	MFC [9]	MFC (Candida tropicalis 3834)	MFC [10]
OCCc1ccc2ccccc2c1 [2-naphtyl ethanol]	inhibits the cellular division of the lymphoma cells of mice	–	–	–	–	–	–	–	–	–	–	–	–	–
CN(C)CCC(CO)c1cccc2ccccc12 (centres unmarked) [SR 42 643 A]	–	1000 µg/mL (≈ 4110 µM)	None	400 mg/kg	1000 µg/mL (≈ 4110 µM)	2000 µg/mL (≈ 8220 µM)	5000 µg/mL (≈ 20500 µM)	5000 µg/mL (≈ 20500 µM)	None	None	–	–	–	–
OCC(CCN1CCCCC1)c1cccc2ccccc12 (centres unmarked) [SR 43 077 A]	–	800 µg/mL (≈ 2820 µM)	None	300 to 400 mg/kg	600 µg/mL (≈ 2120 µM)	600 µg/mL (≈ 2120 µM)	600 µg/mL (≈ 2120 µM)	600 µg/mL (≈ 2120 µM)	None	None	1000 µg/mL (≈ 3530 µM)	5000 µg/mL (≈ 17600 µM)	1000 µg/mL (≈ 3530 µM)	1000 µg/mL (≈ 3530 µM)
Cl.OCC(CCCCCCN1CCCCC1)c1cccc2ccccc12 (centres unmarked) [SR 43 157 A, 8-piperidino-2-(1-naphthyl)-octanol hydrochloride]	–	100 µg/mL	None	–	200 µg/mL	200 µg/mL	200 µg/mL	200 µg/mL	None	None	300 µg/mL	1000 µg/mL	300 µg/mL	300 µg/mL
OCC(CCN1CCCCCC1)c1ccc2ccccc2c1 (centres unmarked) [SR 43 270 A]	–	1000 µg/mL (≈ 3360 µM)	None	–	1000 µg/mL (≈ 3360 µM)	2000 µg/mL (≈ 6720 µM)	1000 µg/mL (≈ 3360 µM)	1000 µg/mL (≈ 3360 µM)	None	None	1000 µg/mL (≈ 3360 µM)	5000 µg/mL (≈ 16800 µM)	1000 µg/mL (≈ 3360 µM)	500 µg/mL (≈ 1680 µM)
CC(C)N(CCC(CO)c1cccc2ccccc12)Cc1ccccc1 (centres unmarked) [SR 43 292 A]	–	300 µg/mL (≈ 863 µM)	None	500 to 750 mg/kg	300 µg/mL (≈ 863 µM)	300 µg/mL (≈ 863 µM)	300 µg/mL (≈ 863 µM)	300 µg/mL (≈ 863 µM)	None	None	1000 µg/mL (≈ 2880 µM)	2000 µg/mL (≈ 5760 µM)	1000 µg/mL (≈ 2880 µM)	1000 µg/mL (≈ 2880 µM)
CC1CCN(CCCCCCC(CO)c2cccc3ccccc23)CC1 (centres unmarked) [SR 43 293 A]	–	200 µg/mL (≈ 566 µM)	None	≤ 250 mg/kg	200 µg/mL (≈ 566 µM)	200 µg/mL (≈ 566 µM)	200 µg/mL (≈ 566 µM)	200 µg/mL (≈ 566 µM)	None	None	500 µg/mL (≈ 1410 µM)	1000 µg/mL (≈ 2830 µM)	200 µg/mL (≈ 566 µM)	500 µg/mL (≈ 1410 µM)
OCC(CCN1CCC(Cc2ccccc2)CC1)c1cccc2ccccc12 (centres unmarked) [SR 43 383 A]	–	100 µg/mL (≈ 268 µM)	None	1180 mg/kg	100 µg/mL (≈ 268 µM)	100 µg/mL (≈ 268 µM)	100 µg/mL (≈ 268 µM)	100 µg/mL (≈ 268 µM)	None	None	100 µg/mL (≈ 268 µM)	500 µg/mL (≈ 1340 µM)	100 µg/mL (≈ 268 µM)	100 µg/mL (≈ 268 µM)
CN(C)CCCCCCC(CO)c1cccc2ccccc12 (centres unmarked) [SR 43 727 A]	–	50 µg/mL (≈ 167 µM)	None	580 mg/kg	200 µg/mL (≈ 668 µM)	20 µg/mL (≈ 66.8 µM)	20 µg/mL (≈ 66.8 µM)	50 µg/mL (≈ 167 µM)	None	None	–	–	–	–
